This note sets out measurements from patent publication EP0491061A1, “Use of enalapril and perindopril as prolactin-lowering medicament” (Weth, Gosbert Dr. med., Dr. rer. nat., priority 1990, dated 1992).

Each structure is given as a SMILES string. “Also recorded” adds a separate entry of the source.

One assay has as its system Dopamin. Nature of the assay: Plasma dopamine determination (method of Weth) in patients with circulatory disorders after dosing. Conditions: for Dopamin MW: mean of 12 patients. Format: in vivo, Patienten. The source says: Die durch die erfindungsgemäß verwendeten N-(Aminoacyl)-aminosäuren erhöhte Freisetzung von Dopamin bei gleichzeitiger Senkung des Prolaktins konnte durch pharmakologische Tests veranschaulicht und bewiesen werden. Die Dopaminbestimmung wurde nach G. Weth, "Das Verhalten der Neurotransmitter....", Dissertation, Würzburg, 1987, S. 123-138, durchgeführt. Die Bestimmung von Prolaktin wurde radioimmunologisch nach den Methoden von P. Hwang, H. Guyda, H. Friesen, Proc. Nat. Sci. (USA) 1971,68-8, S.1902-06 durchgeführt.
Für die Untersuchungen wurden 2x12 Patienten (Alter 75±10 Jahre) herangezogen, die unter Durchblutungsstörungen, sowohl peripheren als auch zentralen, litten. Bei diesen Patienten wurden sowohl vor der Gabe von Enalaprilhydrogenmaleat, als auch 15, 30, 60, und 120 Minuten nach der Gabe von Enalaprilhydrogenmaleat Dopamin und Prolaktin bestimmt.
Die Patienten bekamen sublingual […] Enalaprilhydrogenmaleat verabreicht (RR zwischen 100/70 und 170/110; MW 130/90 mm Hg).
Die Bestimmung der Dopamin- und Prolaktinwerte wurde wie folgt vorgenommen. In Zeitabschnitten von 15, 30, 60 und 120 Minuten wurden dem Patienten je 5 ml Blut entnommen und in speziell präparierten Vakuum-Behältern, die Glutathion und EDTA enthielten gegeben. Das Blut wird sofort auf 2°C abgekühlt und bei 2°C zentrifugiert. Das überstehende Blutplasma wurde bis zur Dopamin- und Prolaktinbestimmung bei minus 80 °C tiefgefroren.
Die Dimensionsangaben betragen für Dopamin pg/ml bzw. ng/l und für Prolaktin ng/ml.

The test system of a further assay is Prolaktin. Nature of the assay: Plasma prolactin determination by radioimmunoassay (method of Hwang et al.) in patients after dosing. It counts as in vivo, Patienten. Conditions: for Prolaktinsenkung: average weight 60 kg.

`CCOC(=O)[C@H](CCc1ccccc1)N[C@@H](C)C(=O)N1CCC[C@H]1C(=O)O` [Enalaprilhydrogenmaleat]: the “Dopamin MW” value was 143 pg/mL in the assay on Dopamin (15 min after 20 mg Enalaprilhydrogenmaleat, plasma); 188 pg/mL in the assay on Dopamin (30 min after 20 mg Enalaprilhydrogenmaleat, plasma); 253 pg/mL in the assay with Dopamin (60 min after 20 mg Enalaprilhydrogenmaleat, plasma); 230 pg/mL in the assay with Dopamin (90 min after 20 mg Enalaprilhydrogenmaleat, plasma); 182 pg/mL in the assay with Dopamin (120 min after 20 mg Enalaprilhydrogenmaleat, plasma); 105 pg/mL in the assay with Dopamin (time 0 (before dosing), 20 mg Enalaprilhydrogenmaleat, plasma). In the assay with Dopamin (Fig. 1, 20 mg sublingual, average weight 60 kg, plasma), the “Höhepunkt des Dopaminanstiegs (time)” value turned out to be 60 min. Also, the “Anstieg des Dopamins” value in the assay on Dopamin (in words, 15 min after sublingual dosing) is listed as “hochsignifikanten Anstieg; also recorded: signifikanten Anstieg”. The “Prolaktin MW” value is 15,4 ng/ml with Prolaktin (15 min after 20 mg Enalaprilhydrogenmaleat, plasma, mean of 12 patients); 14,3 ng/ml in the assay with Prolaktin (30 min after 20 mg Enalaprilhydrogenmaleat, plasma, mean of 12 patients); 11,9 ng/ml in the assay with Prolaktin (60 min after 20 mg Enalaprilhydrogenmaleat, plasma, mean of 12 patients); 10,8 ng/ml in the assay with Prolaktin (90 min after 20 mg Enalaprilhydrogenmaleat, plasma, mean of 12 patients); 10,2 ng/ml with Prolaktin (120 min after 20 mg Enalaprilhydrogenmaleat, plasma, mean of 12 patients); 16,2 ng/ml in the assay with Prolaktin (time 0 (before dosing), 20 mg Enalaprilhydrogenmaleat, plasma, mean of 12 patients). Moreover, the “Senkung des Prolaktins” value in the assay with Prolaktin (in words, 30 min after sublingual dosing) is given as “deutlichen Senkung”. For the same compound, the Prolaktinsenkung entry is recorded as “signifikante” with Prolaktin (in words, Fig. 2, 30 min after 20 mg oral) and “hochsignifikante Prolaktinsenkung” in the assay with Prolaktin (in words, Fig. 2, 60 min after 20 mg oral). Also, the “Abfall von Prolaktin” value in the assay on Prolaktin (in words, after 25 mg (so in the source)) was “signifikanten Abfall”.
Consider `CCC[C@H](N[C@@H](C)C(=O)N1[C@H](C(=O)O)C[C@@H]2CCCC[C@@H]21)C(=O)OCC` [Perindopril], for which, in the assay on Prolaktin (30 min after 20 mg Perindopril oral, mean of 12 patients (average weight 60 kg)), the “Prolaktin MW” value is on record as 12,3 pg/ml. In addition, the “Prolaktin im Blutplasma” value in the assay on Prolaktin (Fig. 3, 30 min after 20 mg oral) came out at 12 ng/mL; in the assay with Prolaktin (Fig. 3, 90 min after 20 mg oral), 7 ng/mL. Further, in the assay with Prolaktin (Fig. 3, before 20 mg oral, blood plasma), the “Anfangskonzentration Prolaktin” value is 15 ng/mL.
